In patent US7605156B2, “Methods for the use of inhibitors of cytosolic phospholipase A2” (Wyeth, priority 2001, dated 2009) one finds IC50 data, which are given here for 26 compounds.

The assay has as its target T1, cPLA2 (Homo sapiens, UniProt P47712).
T1 sequence (P47712 1-749): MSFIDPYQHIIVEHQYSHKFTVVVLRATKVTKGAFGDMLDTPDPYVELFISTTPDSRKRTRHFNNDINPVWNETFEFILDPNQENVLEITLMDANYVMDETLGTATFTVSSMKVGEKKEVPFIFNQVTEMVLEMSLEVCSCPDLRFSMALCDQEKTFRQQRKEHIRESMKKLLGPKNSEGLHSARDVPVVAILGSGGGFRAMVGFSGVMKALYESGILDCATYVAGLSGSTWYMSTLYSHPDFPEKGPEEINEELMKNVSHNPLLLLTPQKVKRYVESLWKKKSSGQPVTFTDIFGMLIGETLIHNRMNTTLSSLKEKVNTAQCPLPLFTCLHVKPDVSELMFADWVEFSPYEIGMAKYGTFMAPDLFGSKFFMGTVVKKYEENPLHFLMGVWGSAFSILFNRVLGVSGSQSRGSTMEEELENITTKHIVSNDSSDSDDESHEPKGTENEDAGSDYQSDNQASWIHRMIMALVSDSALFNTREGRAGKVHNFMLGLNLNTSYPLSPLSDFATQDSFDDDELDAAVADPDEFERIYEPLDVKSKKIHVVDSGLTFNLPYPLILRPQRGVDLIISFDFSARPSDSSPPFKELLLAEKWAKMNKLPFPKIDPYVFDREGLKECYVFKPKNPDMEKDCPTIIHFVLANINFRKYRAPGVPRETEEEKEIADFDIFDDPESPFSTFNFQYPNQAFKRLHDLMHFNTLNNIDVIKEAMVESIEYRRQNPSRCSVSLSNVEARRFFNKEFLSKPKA
Description: Coumarine assay (hydrolysis of 7-hydroxycoumarinyl 6-heptenoate). In kind it is biochemical. Conditions: 60 μM 7-hydroxycoumarinyl 6-heptenoate, pH 7.5; read-out: Coumarin IC50.
Description: Inhibitors were mixed with 200 μL assay buffer (80 mM Heped, pH 7.5, 1 mM EDTA) containing 60 μM 7-hydroxycoumarinyl 6-heptenoate. The reaction was initiated by adding 4 μg cPLA2 in 50 μL assay buffer. Hydrolysis of the 7-hydroxycounarimyl 6-heptenoate ester was monitored in a fluorometer by exciting at 360 nm and monitoring emission at 460 nm. Enzyme activity is proportional to the increase in emission at 460 nm per minute. In the presence of a cPLA2 inhibitor, the rate of increase is less.

Consider `O=C(O)c1ccc(CCCc2c(CCNS(=O)(=O)c3cc(Cl)c(F)cc3F)n(C(c3ccccc3)c3ccccc3)c3ccc(Cl)cc23)cc1` [Example 166, 4-{3-[1-benzhydryl-5-chloro-2-(2-{[(5-chloro-2,4-difluorophenyl)sulfonyl]amino}ethyl)-1H-indol-3-yl]propyl}benzoic acid], for which the IC50 turned out to be 400 nM.
Then `O=C(O)c1ccc(CCCc2c(CCNS(=O)(=O)c3ccccc3Cl)n(C(c3ccccc3)c3ccccc3)c3ccccc23)cc1` [Example 295, 4-{3-[1-benzhydryl-2-(2-{[(2-chlorophenyl)sulfonyl]amino}ethyl)-1H-indol-3-yl]propyl}benzoic acid], with 550 nM.
Then `Cc1cccc(C)c1S(=O)(=O)NCCc1c(CCCc2ccc(C(=O)O)cc2)c2cc(Cl)ccc2n1C(c1ccccc1)c1ccccc1` [Example 270, 4-(3-[1-benzhydryl-5-chloro-2-(2-{[(2,6-dimethylphenyl)sulfonyl]amino}ethyl)-1H-indol-3-yl]propyl}benzoic acid], with 140 nM.
The result for `CC(C)(C)c1ccccc1S(=O)(=O)NCCc1c(CCOc2ccc(C(=O)O)cc2)c2cc(Cl)ccc2n1C(c1ccccc1)c1ccccc1` [Example 237, 4-{2-[1-benzhydryl-2-(2-{[(2-tert-butylphenyl)sulfonyl]amino}ethyl)-5-chloro-1H-indol-3-yl]ethoxy}benzoic acid] reads 200 nM; that for `CC(C)Oc1ccccc1S(=O)(=O)NCCc1c(CCCc2ccc(C(=O)O)cc2)c2cc(Cl)ccc2n1C(c1ccccc1)c1ccccc1` [Example 186, 4-(3-{1-Benzhydryl-5-chloro-2-[2-(2-isopropoxy-benzenesulfonylamino)-ethyl]-1H-indol-3-yl}-propyl)benzoic acid], 100 nM.
Regarding `O=C(O)c1ccc(CCCc2c(CCNS(=O)(=O)c3ccccc3Cl)n(C(c3ccccc3)c3ccccc3)c3ccc(Cl)cc23)cc1` [Example 254, 4-{3-[1-benzhydryl-5-chloro-2-(2-{[(2-chlorophenyl)sulfonyl]amino}ethyl)-1H-indol-3-yl]propyl}benzoic acid], the IC50 was determined as 260 nM.
For the compound `O=C(O)c1ccc(OCCc2c(CCNS(=O)(=O)C[S+]([O-])c3ccc(Cl)c(Cl)c3)n(C(c3ccccc3)c3ccccc3)c3ccc(Cl)cc23)cc1` (centres unmarked) [Example 289, 4-[2-(1-benzhydryl-5-chloro-2-{2-[({[(3,4-dichlorophenyl)sulfinyl]methyl}sulfonyl)amino]ethyl}-1H-indol-3-yl)ethoxy]benzoic acid], the IC50 was 900 nM.
Then `Cc1c(Cl)cc(F)cc1S(=O)(=O)NCCc1c(CCCc2ccc(C(=O)O)cc2)c2cc(Cl)ccc2n1C(c1ccccc1)c1ccccc1` [Example 263, 4-{3-[1-benzhydryl-5-chloro-2-(2-{[(3-chloro-5-fluoro-2-methylphenyl)sulfonyl]amino}ethyl)-1H-indol-3-yl]propyl}benzoic acid], with 320 nM; and `COc1ccc(S(=O)(=O)NCCc2c(CCCc3ccc(C(=O)O)cc3)c3cc(Cl)ccc3n2C(c2ccccc2)c2ccccc2)c([N+](=O)[O-])c1` [Example 200, 4-(3-{1-Benzhydryl-5-chloro-2-[2-(4-methoxy-2-nitro-benzenesulfonylamino)-ethyl]-1H-indol-3-yl}-propyl)-benzoic acid], with 350 nM; and `O=C(O)c1ccc(OCCc2c(CCNS(=O)(=O)c3c(F)cc(F)cc3F)n(C(c3ccccc3)c3ccccc3)c3ccc(Cl)cc23)cc1` [Example 196, 4-(2-{1-Benzhydryl-5-chloro-2-[2-(2,4,6-trifluoro-benzenesulfonylamino)-ethyl]-1H-indol-3-yl}-ethoxy)-benzoic acid], with 560 nM.
Then `CCC1CCCCN1CCS(=O)(=O)NCCc1c(CCOc2ccc(C(=O)O)cc2)c2cc(Cl)ccc2n1C(c1ccccc1)c1ccccc1` (centres unmarked) [Example 249, 4-(2-{1-benzhydryl-5-chloro-2-[2-({[2-(2-ethylpiperidin-1-yl)ethyl]sulfonyl}amino)ethyl]-1H-indol-3-yl}ethoxy)benzoic acid], with 670 nM; and `COc1ccccc1S(=O)(=O)NCCc1c(CCOc2ccc(C(=O)O)cc2)c2cc(Cl)ccc2n1C(c1ccccc1)c1ccccc1` [Example 235, 4-{2-[1-benzhydryl-5-chloro-2-(2-{[(2-methoxyphenyl)sulfonyl]amino}ethyl)-1H-indol-3-yl]ethoxy}benzoic acid], with 180 nM; and `O=C(O)c1ccc(OCCc2c(CCNS(=O)(=O)c3ccccc3F)n(C(c3ccccc3)c3ccccc3)c3ccc(Cl)cc23)cc1` [Example 223], with 600 nM.
On to `Cc1c(S(=O)(=O)NCCc2c(CCOc3ccc(C(=O)O)cc3)c3cc(Cl)ccc3n2C(c2ccccc2)c2ccccc2)cnn1-c1ccccc1` [Example 211, 4-{2-[1-benzhydryl-5-chloro-2-(2-{[(5-methyl-1-phenyl-1H-pyrazol-4-yl)sulfonyl]amino}ethyl)-1H-indol-3-yl]ethoxy}benzoic acid], for which the IC50 stood at 400 nM.
The result for `CC(C)(C)c1ccccc1S(=O)(=O)NCCc1c(CCCc2ccc(C(=O)O)cc2)c2cc(Cl)ccc2n1C(c1ccccc1)c1ccccc1` [Example 236] reads 85 nM.
The result for `O=S(=O)(Cc1ccc(Cl)c(Cl)c1)NCCc1c(CCOc2ccc(-c3nn[nH]n3)cc2)c2cc(Cl)ccc2n1C(c1ccccc1)c1ccccc1` [Example 192, N-[2-(1-benzhydryl-5-chloro-3-{2-[4-(2H-tetraazol-5-yl)phenoxy]ethyl}-1H-indol-2-yl)ethyl]-1-(3,4-dichlorophenyl)methanesulfonamide] reads less than 3700 nM; that for `Cc1cccc(Cl)c1S(=O)(=O)NCCc1c(CCOc2ccc(C(=O)O)c(F)c2)c2cc(Cl)ccc2n1C(c1ccccc1)c1ccccc1` [Example 191, 4-(2-{1-Benzhydryl-5-chloro-2-[2-(2-chloro-6-methyl-benzenesulfonylamino)-ethyl]-1H-indol-3-yl}-ethoxy)-2-fluoro-benzoic acid], 200 nM; that for `CC1CCN(CCS(=O)(=O)NCCc2c(CCOc3ccc(C(=O)O)cc3)c3cc(Cl)ccc3n2C(c2ccccc2)c2ccccc2)CC1` [Example 245, 4-(2-{1-benzhydryl-5-chloro-2-[2-({[2-(4-methylpiperidin-1-yl)ethyl]sulfonyl}amino)ethyl]-1H-indol-3-yl}ethoxy)benzoic acid], 900 nM.
The result for `O=C(O)c1ccc(OCCc2c(CCNS(=O)(=O)Cc3cccc(C(F)(F)F)c3)n(C(c3ccccc3)c3ccccc3)c3ccc(Cl)cc23)cc1` [Example 47, 4-(2-{1-benzhydryl-5-chloro-2-[2-({[3-(trifluoromethyl)benzyl]sulfonyl}amino)ethyl]-1H-indol-3-yl}ethoxy)benzoic acid] reads 580 nM.
Take `CSc1ccccc1S(=O)(=O)NCCc1c(CCCc2ccc(C(=O)O)cc2)c2cc(Cl)ccc2n1C(c1ccccc1)c1ccccc1` [Example 238]: the IC50 stood at 250 nM.
Turning to `O=S(=O)(NCCc1c(CCOc2ccc(-c3nn[nH]n3)cc2)c2cc(Cl)ccc2n1C(c1ccccc1)c1ccccc1)c1ccccc1Cl` [Example 193, N-[2-(1-benzhydryl-5-chloro-3-{2-[4-(2H-tetrazol-5-yl)-phenoxy]-ethyl}-1H-indol-2-yl)-ethyl]-2-chlorobenzenesulfonamide], the IC50 was determined as 1800 nM.
The result for `O=C(O)c1ccc(OCCc2c(CCNS(=O)(=O)CSc3ccc(F)cc3F)n(C(c3ccccc3)c3ccccc3)c3ccc(Cl)cc23)cc1` [Example 288, 4-[2-(1-benzhydryl-5-chloro-2-{2-[({[(2,4-difluorophenyl)thio]methyl}sulfonyl)amino]ethyl}-1H-indol-3-yl)ethoxy]benzoic acid] reads 400 nM; that for `O=C(O)c1ccc(CCCc2c(CCNS(=O)(=O)c3ccccc3F)n(C(c3ccccc3)c3ccccc3)c3ccc(Cl)cc23)cc1` [Example 222, 4-{3-[1-Benzhydryl-5-chloro-2-(2-{[(2-fluorophenyl)sulfonyl]amino}ethyl)-1H-indol-3-yl)propyl]benzoic acid], 190 nM.
For `O=C(O)c1ccc(OCCc2c(CCNS(=O)(=O)c3ccccc3Br)n(C(c3ccccc3)c3ccccc3)c3ccc(Cl)cc23)cc1` [Example 165, 4-{2-[1-benzhydryl-2-(2-{[(2-bromophenyl)sulfonyl]amino}ethyl)-5-chloro-1H-indol-3-yl]ethoxy}benzoic acid], the IC50 worked out at 530 nM.
Then `O=C(O)c1ccc(OCCc2c(CCNS(=O)(=O)c3ccccc3OCc3ccccc3)n(C(c3ccccc3)c3ccccc3)c3ccc(Cl)cc23)cc1` [Example 184, 4-(2-{1-Benzhydryl-2-[2-(2-benzyloxy-benzenesulfonylamino)-ethyl]-5-chloro-1H-indol-3-yl}-ethoxy)benzoic acid], with 350 nM; and `O=C(O)c1ccc(CCCc2c(CCNS(=O)(=O)c3ccccc3OCc3ccccc3)n(C(c3ccccc3)c3ccccc3)c3ccc(Cl)cc23)cc1` [Example 187, 4-(3-{1-Benzhydryl-2-[2-(2-benzyloxy-benzenesulfonylamino)-ethyl]-5-chloro-1H-indol-3-yl}-propyl)benzoic acid], with 200 nM.

As a reminder, the IC50 is the midpoint of a concentration-inhibition curve.
